For one data set, the target named is T1, human VDR (Homo sapiens, UniProt P11473).
T1 construct: expressed in transfected cells; host or cells: COS cells
T1 sequence (P11473 1-427): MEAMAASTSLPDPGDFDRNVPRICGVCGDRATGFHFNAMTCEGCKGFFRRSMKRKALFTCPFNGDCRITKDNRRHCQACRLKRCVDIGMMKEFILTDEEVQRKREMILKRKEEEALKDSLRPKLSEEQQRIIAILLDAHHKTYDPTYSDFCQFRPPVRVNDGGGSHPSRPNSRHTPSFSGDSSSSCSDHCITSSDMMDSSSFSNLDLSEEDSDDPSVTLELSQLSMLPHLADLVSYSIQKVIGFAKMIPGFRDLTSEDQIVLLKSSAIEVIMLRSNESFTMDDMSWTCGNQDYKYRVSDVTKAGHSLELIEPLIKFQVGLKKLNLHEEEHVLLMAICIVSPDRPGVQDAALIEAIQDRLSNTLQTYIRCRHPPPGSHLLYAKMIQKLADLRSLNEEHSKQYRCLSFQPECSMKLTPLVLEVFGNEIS
Nature of the data set: VDR activation (transcription activation assay; COS cells cotransfected with human VDR and VDRE3-luciferase reporter). The format is cell-based. The following applies: human VDR (pSG5), VDRE3 rat osteocalcin / tk promoter / luciferase reporter, concentration giving half-maximal activity (8-10 fold luciferase induction), read-out: Vitamin D Receptor Activation ED50. The text has this: In order to measure the activation of the vitamin D receptor (VDR) by vitamin D analogs in cells a transcription activation assay was used. COS cells were cotransfected with the human VDR (expressed in pSG5) and a reporter gene containing three response elements (VDRE3) from the rat osteocalcin gene, the thymidine kinase basal promoter, and the luciferase reporter gene.

Data set [1] can be described thus: Calcium liability (tolerance test in mice). The note with it: mouse, in vivo, sc. The text has this:
This routine test gives a global picture of calcemic liability. Profound changes in calcium homeostasis strongly affect the weight development of the animals. This parameter was used as a primary test for tolerance. Mice (25-30 g body weight.) received daily subcutaneous administrations of the vitamin D derivative for 4 consecutive days. Body weight was registered just before and at the end of a 5 day treatment period.

[2] abbreviates: mice 25-30 g, daily subcutaneous administration for 4 consecutive days, body weight before and at end of 5 day treatment period, read-out: HTD in mice (highest tolerated dose, dose which results in zero weight gain).

pEC50: −log10 of the molar value. Where two headings read alike, the source gives them in different places.

Take `C=C1/C(=C\C=C2/CCC[C@]3(C)[C@@H]([C@H](C)COC(=O)CC(C)(O)CC)CC[C@@H]23)C[C@@H](O)C[C@@H]1O` (mixture of isomers) [Example 29, 1:1 Mixture of (R)-and-(S)-3-hydroxy-3-methyl-pentanoic acid-(5Z,7E)-(1S,3R,20S)-1,3-dihydroxy-20-methyl-9,10-seco-pregna-5,7,10 (19)-trien-21-yl ester]: the pEC50 on human VDR is 8.60. Further, in data set [1], the MTD at 120 h came to 7 mg/kg. For the compound `C=C1/C(=C\C=C2/CCC[C@]3(C)[C@@H]([C@H](C)CCCC(C)(C)O)CC[C@@H]23)C[C@@H](O)C[C@@H]1O` [Calcitriol, calcitriol, reference compound], the MTD at 120 h in data set [1] (setting [2]) was 0.0005 mg/kg. Turning to `C[C@H](C(=O)OCC1(O)CCCC1)[C@H]1CC[C@H]2/C(=C/C=C3C[C@@H](O)C[C@H](O)C3)CCC[C@]12C` [Example 7, (7E)-(1R,3R,20S)-1,3-Dihydroxy-20-methyl-19-nor-9,10-seco-pregna-5,7-dien-21-oic acid 1-hydroxy-cyclopentylmethyl ester], the pEC50 on human VDR is 7.74. The MTD at 120 h in data set [1] (setting [2]) is above 5 mg/kg. The matching figures for `C[C@H](C(=O)OCC1(O)CCCCC1)[C@H]1CC[C@H]2/C(=C/C=C3C[C@@H](O)C[C@H](O)C3)CCC[C@]12C` [Example 8, (7E)-(1R,3R,20S)-1,3-Dihydroxy-20-methyl-19-nor-9,10-seco-pregna-5,7-dien-21-oic acid 1-hydroxy-cyclohexyl methyl ester]: 7.42 and 1 mg/kg.

Consider `C=C1/C(=C\C=C2/CCC[C@]3(C)[C@@H]([C@H](C)C(=O)OCC4(O)CCCCC4)CC[C@@H]23)C[C@@H](O)C[C@@H]1O` [Example 9, (5Z,7E)-(1R,3R,20S)-1,3-Dihydroxy-20-methyl-9,10-seco-pregna-5,7,10-trien-21-oic acid 1-hydroxy-cyclohexylmethyl ester], for which, at human VDR, the pEC50 was 8.25. Besides, in data set [1] (setting [2]), the MTD at 120 h turned out to be 1 mg/kg. In the case of `C[C@H](C(=O)OCC1(O)CCCCCC1)[C@H]1CC[C@H]2/C(=C/C=C3C[C@@H](O)C[C@H](O)C3)CCC[C@]12C` [Example 10, (7E)-(1R,3R,20S)-1,3-Dihydroxy-20-methyl-19-nor-9,10-seco-pregna-5,7-dien-21-oic acid 1-hyddroxy-cycloheptylmethyl ester], the pEC50 on human VDR is 7.51. Besides, the MTD at 120 h in data set [1] (setting [2]) was above 6 mg/kg. As for `C[C@H](C(=O)OCCC1(O)CCCC1)[C@H]1CC[C@H]2/C(=C/C=C3C[C@@H](O)C[C@H](O)C3)CCC[C@]12C` [Example 11, (7E)-(1R,3R,20S)-1,3-Dihydroxy-20-methyl-19-nor-9,10-seco-pregna-5,7-dien-21-oic acid 2-(1-hyddroxy-cyclopentyl)-ethyl ester], at human VDR, the pEC50 is 6.74. Also, the MTD at 120 h in data set [1] (setting [2]) was above 6 mg/kg. For the compound `C=C1/C(=C\C=C2/CCC[C@]3(C)[C@@H]([C@@H](C)COC(=O)C(C)(C)C)CC[C@@H]23)C[C@@H](O)C[C@@H]1O` [Example 19, 2,2-Dimethyl-propionic acid-(5Z,7E)-(1S,3R,20R)-1,3-dihydroxy-20-methyl-9,10-seco-pregna-5,7,10 (19)-trien-21-yl ester], the pEC50 at human VDR is 9.55. In data set [1], the MTD at 120 h was above 6 mg/kg. Turning to `C=C1/C(=C\C=C2/CCC[C@]3(C)[C@@H]([C@@H](C)COC(=O)C(C)(C)O)CC[C@@H]23)C[C@@H](O)C[C@@H]1O` [Example 20, 2-Hydroxy-2-methyl-propionic acid-(5Z,7E)-(1S,3R,20R)-1,3-dihydroxy-20-methyl-9,10-seco-pregna-5,7,10 (19)-trien-21-yl ester], the pEC50 on human VDR is 9.09. The MTD at 120 h in data set [1] was above 10 mg/kg.

With `C[C@@H](COC(=O)C(C)(C)O)[C@H]1CC[C@H]2/C(=C/C=C3C[C@@H](O)C[C@H](O)C3)CCC[C@]12C` [Example 21, 2-Hydroxy-2-methyl-propionic acid-(7E)-(1R,3R,20R)-1,3-dihydroxy-20-methyl-19-nor-9,10-seco-pregna-5,7-dien-21-yl ester], on human VDR, the pEC50 was 9.26. In addition, the MTD at 120 h in data set [1] (setting [2]) was above 9 mg/kg. With `C=C1/C(=C\C=C2/CCC[C@]3(C)[C@@H]([C@H](C)COC(=O)C(C)(C)C)CC[C@@H]23)C[C@@H](O)C[C@@H]1O` [Example 22, 2,2-Dimethyl-propionic acid (5Z,7E)-(1R,3R)-1,3-dihydroxy-23,24-dinor-9,10-secochola-5,7-dien-22-yl ester], the pEC50 on human VDR is 6.85. Moreover, the MTD at 120 h in data set [1] stood at 9 mg/kg. The matching figures for `C=C1/C(=C\C=C2/CCC[C@]3(C)[C@@H]([C@H](C)COC(=O)C(C)(C)O)CC[C@@H]23)C[C@@H](O)C[C@@H]1O` [Example 23, 2-Hydroxy-2-methyl-propionic acid-(5Z,7E)-(1S,3R,20S)-1,3-dihydroxy-20-methyl-9,10-seco-pregna-5,7,10 (19)-trien-21-yl ester]: 7.08 and above 11 mg/kg.

Regarding `C=C1/C(=C\C=C2/CCC[C@]3(C)[C@@H]([C@H](C)COC(=O)C(O)(CC)CC)CC[C@@H]23)C[C@@H](O)C[C@@H]1O` [Example 24, 2-Ethyl-2-hydroxy-butyric acid-(5Z,7E)-(1S,3R,20S)-1,3-dihydroxy-20-methyl-9,10-seco-pregna-5,7,10 (19)-trien-21-yl ester], the pEC50 at human VDR was 7.74. Besides, the MTD at 120 h in data set [1] (setting [2]) is 2.5 mg/kg. As to `C=C1/C(=C\C=C2/CCC[C@]3(C)[C@@H]([C@H](C)COC(=O)CC(C)(O)C(F)(F)F)CC[C@@H]23)C[C@@H](O)C[C@@H]1O` (stereo partly drawn) [Example 28], the pEC50 on human VDR is 9.28. Moreover, the MTD at 120 h in data set [1] (setting [2]) was determined as 0.5 mg/kg.
